From paper PMC6582486, “Stapled EGFR peptide reduces inflammatory breast cancer and inhibits additional HER-driven models of cancer” (Journal of Translational Medicine, 2019)
Like-named read-outs stand apart in the source and are kept apart here. Where a SMILES comes first, the peptide text is derived from it. Bridges are numbered along the chain shown (N, C = ends). [ ]: non-standard residue; d: D form. R8 = C=CCCCCCC[C@@](C)(N)C(=O)O; S5 = C=CCCC[C@](C)(N)C(=O)O

Legend:
[1] = 28-day toxicity study: survival, NOAEL; assay type: in vivo, CD-1 mice; conditions: for Survival (%): after 28 days, N = 10
Method: (§1) Toxicology was performed by IITRI. The study was conducted in compliance with the US Food and Drug Administration (FDA) good laboratory practice (GLP) Regulations (Code of Federal Regulations Title 21 Part 58) to evaluate the toxicokinetics, local tolerability, immunogenicity, and potential toxicity of SAH5-EJ1 following three times per week intravenous (IV) dosing for 28 days in mice. Male and female CD-1 IGS [Crl:CD1(ICR)] mice (135 per sex) were received from Wilmington, MA-based Charles River Laboratories, Inc.’s Kingston facility (Stone Ridge, NY).
Finally, we confirmed the maximum tolerated dose of SAH5-EJ1, evaluating 5, 10, and 15 mg/kg body weight dosages (Table S3, Additional file 1). […] At 15 mg/kg, one male animal died from unknown causes and was classified as an accidental death. Therefore, 10 mg/kg was considered the no-observed-adverse-effect level (NOAEL). […] Increased spleen weights observed in 10 mg/kg and 15 mg/kg-treated mice most likely resulted from extramedullary hematopoiesis, also known as “blueberry muffin baby syndrome”, an asymptomatic event in which red blood cells accumulate outside of the bone marrow (Table S5, Additional file 1). Increased spleen size is likely due to an increase red blood cell production associated with IV injection-affiliated cell death. Clinical chemistry panels indicate that despite the high concentration of SAH5-EJ1 in the liver, liver function is not inhibited, with normal ranges of ALT/AST and total bilirubin (Table 2).
Male (M) and Female (F) mice. Not including mice for recovery study (additional 10 mice/sex), toxicokinetics (56 mice/sex), or immunogenicity (18 mice/sex). Accidental male deaths on day 27/28 at 5mg/kg dosage and day 22/28 at 15 mg/kg dosage. Female death on day 3/28 at 15mg/kg dosage with hypoactivity noted on day 1.

[2] = Plasma concentration after tail-vein injection (toxicokinetics); assay type: in vivo, CD-1 mice; conditions: for level at 0.5 h / level at 1 h: average ± SD, read-out: SAH-EJ1 concentration in plasma, average;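 on SAH-EJ1 concentration in plasma, average: blood sampled on day 1 after the tail-vein injection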
Method: as §1

CC[C@H](C)[C@H](NC(=O)[C@H](Cc1c[nH]cn1)NC(=O)[C@H](CCCNC(=N)N)NC(=O)[C@H](CCCNC(=N)N)NC(=O)[C@H](CCCNC(=N)N)NC(=O)[C@H](CCSC)NC(=O)[C@H](Cc1ccccc1)NC(=O)[C@H](C)NC(=O)[C@H](CCCNC(=N)N)NC(=O)[C@H](C)NC(=O)[C@H](CCC(N)=O)NC(=O)[C@H](CCCNC(=N)N)NC(=O)[C@H](C)NC(=O)[C@H](C)NC(=O)[C@H](C)NC(=O)[C@H](CCCNC(=N)N)NC(=O)[C@H](C)NC(=O)[C@@H](N)Cc1ccc(O)cc1)C(=O)N[C@H](C(=O)N[C@@H](CCCNC(=N)N)C(=O)N[C@@H](CCCCN)C(=O)N[C@@H](CCCNC(=N)N)C(=O)N[C@]1(C)CCCCCCC=CCCC[C@@](C)(C(=O)N[C@@H](CCCNC(=N)N)C(=O)N[C@@H](CCC(=O)O)C(N)=O)NC(=O)[C@H](CCC(N)=O)NC(=O)[C@H](CC(C)C)NC(=O)[C@H](CC(C)C)NC(=O)[C@H](CCCNC(=N)N)NC(=O)[C@H](CCCNC(=N)N)NC(=O)[C@H](CC(C)C)NC1=O)C(C)C [SAH5-EJ1] (H-YARAAARQARAFMRRRHIVRKR[R8]LRRLLQ[S5]RE-NH2; staple 23-30)
systemic or target organ toxicity ([1]; 5, 10 and 15 mg/kg IV, 28-day repeat toxicity study): no evidence of any systemic or target organ toxicity | NOAEL at 672 h ([1]; both sexes, CD-1, mouse, in vivo, IV three times per week, 28 days, mice, read-out: no-observed-adverse-effect level (NOAEL)): 10 mg/kg | Survival (%) ([1]; female, 5 mg/kg): 100% | Survival (%) ([1]; female, 10 mg/kg): 100% | Survival (%) ([1]; female, 15 mg/kg): 90% | Survival (%) ([1]; male, 5 mg/kg): 90% | Survival (%) ([1]; male, 10 mg/kg): 100% | Survival (%) ([1]; male, 15 mg/kg): 90% | level at 0.5 h ([2]; CD-1, mouse, plasma, female, 10 mg/kg IV, day 1, 0.5 h): 562 ± 47 ng/mL | level at 1 h ([2]; CD-1, mouse, plasma, female, 10 mg/kg IV, day 1, 1 h): 542 ± 33 ng/mL | level at 0.5 h ([2]; CD-1, mouse, plasma, female, 15 mg/kg IV, day 1, 0.5 h): 554 ± 64 ng/mL | level at 1 h ([2]; CD-1, mouse, plasma, female, 15 mg/kg IV, day 1, 1 h): 569 ± 27 ng/mL | level at 0.5 h ([2]; CD-1, mouse, plasma, male, 10 mg/kg IV, day 1, 0.5 h): 638 ± 110 ng/mL | level at 1 h ([2]; CD-1, mouse, plasma, male, 10 mg/kg IV, day 1, 1 h): 665 ± 150 ng/mL | level at 0.5 h ([2]; CD-1 IGS [Crl:CD1(ICR)], mouse, plasma, female, 5 mg/kg IV, day 1, 0.5 h): 569 ± 19 ng/mL | level at 1 h ([2]; CD-1 IGS [Crl:CD1(ICR)], mouse, plasma, female, 5 mg/kg IV, day 1, 1 h): 529 ± 30 ng/mL | level at 0.5 h ([2]; CD-1 IGS [Crl:CD1(ICR)], mouse, plasma, male, 5 mg/kg IV, day 1, 0.5 h): 1020 ± 350 ng/mL | level at 1 h ([2]; CD-1 IGS [Crl:CD1(ICR)], mouse, plasma, male, 5 mg/kg IV, day 1, 1 h): 576 ± 39 ng/mL | level at 0.5 h ([2]; CD-1 IGS [Crl:CD1(ICR)], mouse, plasma, male, 15 mg/kg IV, day 1, 0.5 h): 901 ± 160 ng/mL | level at 1 h ([2]; CD-1 IGS [Crl:CD1(ICR)], mouse, plasma, male, 15 mg/kg IV, day 1, 1 h): 657 ± 37 ng/mL | level at 2 h ([2]; CD-1 IGS [Crl:CD1(ICR)], plasma, male, 15 mg/kg IV, day 1, 2 h, mouse 2 of 3, read-out: SAH-EJ1 concentration in plasma): 551 ng/mL | time by which peptide was not detectable in plasma ([2]; female mice, highest body weight dosage): ≤ 2 h | SAH-EJ1 concentration in plasma ([2]; female, 5 mg/kg IV, day 1, 1 h, mouse 1 of 3): BQL (BQL represents below quantifiable limits (0.5 µg/mL)) | SAH-EJ1 concentration in plasma ([2]; female, 5 mg/kg IV, day 1, 2 h, mouse 1 of 3): BQL (BQL represents below quantifiable limits (0.5 µg/mL)) | SAH-EJ1 concentration in plasma ([2]; female, 5 mg/kg IV, day 1, 2 h, mouse 2 of 3): BQL (BQL represents below quantifiable limits (0.5 µg/mL)) | SAH-EJ1 concentration in plasma ([2]; female, 5 mg/kg IV, day 1, 2 h, mouse 3 of 3): BQL (BQL represents below quantifiable limits (0.5 µg/mL)) | SAH-EJ1 concentration in plasma ([2]; female, 5 mg/kg IV, day 1, 4 h, mouse 1 of 3): BQL (BQL represents below quantifiable limits (0.5 µg/mL)) | SAH-EJ1 concentration in plasma ([2]; female, 5 mg/kg IV, day 1, 4 h, mouse 2 of 3): BQL (BQL represents below quantifiable limits (0.5 µg/mL)) | SAH-EJ1 concentration in plasma ([2]; female, 5 mg/kg IV, day 1, 4 h, mouse 3 of 3): BQL (BQL represents below quantifiable limits (0.5 µg/mL)) | SAH-EJ1 concentration in plasma ([2]; female, 5 mg/kg IV, day 1, 8 h, mouse 1 of 3): BQL (BQL represents below quantifiable limits (0.5 µg/mL)) | SAH-EJ1 concentration in plasma ([2]; female, 5 mg/kg IV, day 1, 8 h, mouse 2 of 3): BQL (BQL represents below quantifiable limits (0.5 µg/mL)) | SAH-EJ1 concentration in plasma ([2]; female, 5 mg/kg IV, day 1, 8 h, mouse 3 of 3): BQL (BQL represents below quantifiable limits (0.5 µg/mL)) | SAH-EJ1 concentration in plasma ([2]; female, 5 mg/kg IV, day 1, 24 h, mouse 1 of 3): BQL (BQL represents below quantifiable limits (0.5 µg/mL)) | SAH-EJ1 concentration in plasma ([2]; female, 5 mg/kg IV, day 1, 24 h, mouse 2 of 3): BQL (BQL represents below quantifiable limits (0.5 µg/mL)) | SAH-EJ1 concentration in plasma ([2]; female, 5 mg/kg IV, day 1, 24 h, mouse 3 of 3): BQL (BQL represents below quantifiable limits (0.5 µg/mL)) | SAH-EJ1 concentration in plasma ([2]; female, 10 mg/kg IV, day 1, 1 h, mouse 2 of 3): BQL (BQL represents below quantifiable limits (0.5 µg/mL)) | SAH-EJ1 concentration in plasma ([2]; female, 10 mg/kg IV, day 1, 2 h, mouse 1 of 3): BQL (BQL represents below quantifiable limits (0.5 µg/mL)) | SAH-EJ1 concentration in plasma ([2]; female, 10 mg/kg IV, day 1, 2 h, mouse 2 of 3): BQL (BQL represents below quantifiable limits (0.5 µg/mL)) | SAH-EJ1 concentration in plasma ([2]; female, 10 mg/kg IV, day 1, 2 h, mouse 3 of 3): BQL (BQL represents below quantifiable limits (0.5 µg/mL)) | SAH-EJ1 concentration in plasma ([2]; female, 10 mg/kg IV, day 1, 4 h, mouse 1 of 3): BQL (BQL represents below quantifiable limits (0.5 µg/mL)) | SAH-EJ1 concentration in plasma ([2]; female, 10 mg/kg IV, day 1, 4 h, mouse 2 of 3): BQL (BQL represents below quantifiable limits (0.5 µg/mL)) | SAH-EJ1 concentration in plasma ([2]; female, 10 mg/kg IV, day 1, 4 h, mouse 3 of 3): BQL (BQL represents below quantifiable limits (0.5 µg/mL)) | SAH-EJ1 concentration in plasma ([2]; female, 10 mg/kg IV, day 1, 8 h, mouse 1 of 3): BQL (BQL represents below quantifiable limits (0.5 µg/mL)) | SAH-EJ1 concentration in plasma ([2]; female, 10 mg/kg IV, day 1, 8 h, mouse 2 of 3): BQL (BQL represents below quantifiable limits (0.5 µg/mL)) | SAH-EJ1 concentration in plasma ([2]; female, 10 mg/kg IV, day 1, 8 h, mouse 3 of 3): BQL (BQL represents below quantifiable limits (0.5 µg/mL)) | SAH-EJ1 concentration in plasma ([2]; female, 10 mg/kg IV, day 1, 24 h, mouse 1 of 3): BQL (BQL represents below quantifiable limits (0.5 µg/mL)) | SAH-EJ1 concentration in plasma ([2]; female, 10 mg/kg IV, day 1, 24 h, mouse 2 of 3): BQL (BQL represents below quantifiable limits (0.5 µg/mL)) | SAH-EJ1 concentration in plasma ([2]; female, 10 mg/kg IV, day 1, 24 h, mouse 3 of 3): BQL (BQL represents below quantifiable limits (0.5 µg/mL)) | SAH-EJ1 concentration in plasma ([2]; female, 15 mg/kg IV, day 1, 0.5 h, mouse 3 of 3): BQL (BQL represents below quantifiable limits (0.5 µg/mL)) | SAH-EJ1 concentration in plasma ([2]; female, 15 mg/kg IV, day 1, 1 h, mouse 2 of 3): BQL (BQL represents below quantifiable limits (0.5 µg/mL))
